This is an account of results in paper PMC7468908 (Nutrients, 2020).

Series [1] deals with T1, CYP2D6 (Homo sapiens, UniProt P10635).
T1 construct: purchased Sigma-Aldrich
Briefly: CYP2D6-catalyzed dextromethorphan O-demethylation (CypExpress kit, HPLC). The conditions noted are these: up to 30 μM flavonoid, substrate 5 µM dextromethorphan. In kind it is biochemical. As for the experimental part:
Inhibition of CYP2C19 [47], 3A4 [48], and 2D6 [49] by Q and its conjugates was tested based on our previously reported methods, without modifications.
S-mephenytoin and 4-hydroxymephenytoin (CYP2C19 assay), testosterone and 6β-hydroxytestosterone (CYP3A4 assay), as well as dextromethorphan and dextrorphan (CYP2D6 assay) were quantified using the previously described methods, with minor modifications.
In the CYP2D6 assay, samples were driven through a guard column (Security Guard C8, 4.0 × 3.0 mm; Phenomenex, Torrance, CA, USA) linked to an analytical column (Mediterranea Sea8 C8 150 × 4.6 mm; 5 µm; Teknokroma, Barcelona, Spain). The isocratic elution was performed with 1 mL/min flow rate at room temperature, the mobile phase contained acetonitrile and 6.9 mM sodium-acetate buffer (pH 4.0) (31:69 v/v%). Dextromethorphan and dextrorphan were detected at 280 nm.

Series [2] has as its target T2, MRP2 (Homo sapiens, UniProt Q92887).
T2 construct: made in house; host or cells: Sf9 insect cells (baculovirus)
Briefly: MRP2 vesicular transport of CDCF in Sf9 membrane vesicles. It is filed as biochemical. The protocol:
Experiments were performed in insect membrane vesicles, as describe previously. Human BCRP and MRP2 were expressed in Sf9 insect cells by baculoviruses. At the third day of infection, cells were collected and membrane vesicles were obtained by mechanical disruption and differential centrifugation. To get full activity for BCRP, the cholesterol levels of the vesicles were adjusted to the level of mammalian membranes. Vesicles were stored at -80°C, total protein content of preparations was measured by the Lowry method (used as a reference of the quantity). Membrane vesicles (50 μg protein/sample) were incubated at 37 °C for 10 min (without or with 4 mM of Mg-ATP) in 50 μL volume, in the presence of transporter specific fluorescent substrates (10 μM lucifer yellow (LY) for BCRP and 5 μM 5(6)-Carboxy-2′,7′-dichlorofluorescein (CDCF) for MRP2). Quality of membrane vesicles was confirmed applying known reference inhibitors (benzbromarone and Ko143). ATP dependent uptake of fluorescent substrates was examined in the presence of flavonoids (up to 50–200 μM). Each compound was dissolved in DMSO and solvent controls were applied in all experiments. […] After incubation, samples were rapidly filtered and washed on filter plate (MSFBN6B10, Millipore, Burlington, MA, USA). Accumulated substrates in vesicles were solved back from the filter by 100 μL of 10% sodium dodecyl sulfate and centrifuged into another plate. A 100-μL volume of fluorescence stabilizer was added to the samples (DMSO for LY, and 0.1 M NaOH for CDCF). Fluorescence of samples was measured by a plate reader (Victor X3 Perkin-Elmer, Waltham, MA, USA) at appropriate wavelengths (filters were λex = 405 nm and λem = 535 nm for LY as well as λex = 492 nm and λem = 635 nm for CDCF). ABC related transport was calculated by subtracting passive uptake measured without Mg-ATP (with Mg-AMP the same background was detected) from values measured in the presence of Mg-ATP.

Series [3] addresses T3, OATP1B3 (Homo sapiens, UniProt Q9NPD5).
T3 construct: host or cells: A431
T3 sequence (Q9NPD5 1-702): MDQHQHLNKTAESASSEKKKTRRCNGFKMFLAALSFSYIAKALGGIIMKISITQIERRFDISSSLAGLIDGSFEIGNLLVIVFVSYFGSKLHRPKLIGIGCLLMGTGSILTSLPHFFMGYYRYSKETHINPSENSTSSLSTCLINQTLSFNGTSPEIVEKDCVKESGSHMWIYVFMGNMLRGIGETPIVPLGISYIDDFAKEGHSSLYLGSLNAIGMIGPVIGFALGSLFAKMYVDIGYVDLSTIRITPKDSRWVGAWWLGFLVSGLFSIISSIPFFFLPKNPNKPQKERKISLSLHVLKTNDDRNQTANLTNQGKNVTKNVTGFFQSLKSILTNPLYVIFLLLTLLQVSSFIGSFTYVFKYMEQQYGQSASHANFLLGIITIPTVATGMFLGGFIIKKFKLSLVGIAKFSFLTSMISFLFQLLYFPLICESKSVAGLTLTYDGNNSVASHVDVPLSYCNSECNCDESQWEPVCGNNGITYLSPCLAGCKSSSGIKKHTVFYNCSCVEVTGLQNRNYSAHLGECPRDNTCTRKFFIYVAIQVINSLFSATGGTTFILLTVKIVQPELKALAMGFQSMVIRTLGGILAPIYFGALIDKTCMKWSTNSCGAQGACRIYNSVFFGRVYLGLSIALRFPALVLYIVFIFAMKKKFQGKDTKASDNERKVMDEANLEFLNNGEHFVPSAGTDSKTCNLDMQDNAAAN
Briefly: OATP1B3-mediated pyranine uptake in A431 cells overexpressing OATP1B3. It is filed as cell-based. As for the experimental part:
A431 cells overexpressing human OATPs, 1A2 (BC042452, HsCD00333163), 1B1 (Gene ID: AB026257), 1B3 (BC141525, HsCD00348132) or 2B1 (BC041095.1, HsCD00378878), or their mock transfected controls, were generated as previously described. Cells were cultured in Dulbecco’s Modified Eagle Medium (DMEM; Thermo Fischer Scientific, Waltham, MA, USA) supplemented with 10% fetal bovine serum, 2 mM L-glutamine, 100 units/mL penicillin and 100 µg/mL streptomycin, at 37 °C with 5% CO2.
Briefly, A431 cell overexpressing OATPs, 1A2, 1B1, 1B3 or 2B1, or their mock transfected controls, were seeded on 96-well plates in a density of 8x10^4 cells/well in 200 μL DMEM one day prior to the transport measurements. […] Thereafter, cells were incubated at 37°C for 15 min (OATP1B1 and OATP2B1), 10 min (OATP1A2), or 30 min (OATP1B3). The reactions were stopped by removing the supernatants, then the cells were washed three times with ice-cold PBS. […] OATP-dependent transport was calculated by extracting fluorescence measured in mock transfected cells. Transport activity was calculated based on the fluorescence signal in the absence (100%) of flavonoids. Experiments were repeated at least in three biological replicates. IC50 values were calculated by Hill1 fit, using the Origin Pro8.6 software ([…]).

Setting [4] is: vesicular uptake of 5 μM CDCF, read-out: IC50 for MRP2.
Setting [5] is: 20 μM pyranine, 30 min, A431-OATP1B3 cells, read-out: IC50 for OATP1B3.

Structures are written as SMILES. Where two headings read alike, the source gives them in different places.

T1 sequence (P10635 whole entry): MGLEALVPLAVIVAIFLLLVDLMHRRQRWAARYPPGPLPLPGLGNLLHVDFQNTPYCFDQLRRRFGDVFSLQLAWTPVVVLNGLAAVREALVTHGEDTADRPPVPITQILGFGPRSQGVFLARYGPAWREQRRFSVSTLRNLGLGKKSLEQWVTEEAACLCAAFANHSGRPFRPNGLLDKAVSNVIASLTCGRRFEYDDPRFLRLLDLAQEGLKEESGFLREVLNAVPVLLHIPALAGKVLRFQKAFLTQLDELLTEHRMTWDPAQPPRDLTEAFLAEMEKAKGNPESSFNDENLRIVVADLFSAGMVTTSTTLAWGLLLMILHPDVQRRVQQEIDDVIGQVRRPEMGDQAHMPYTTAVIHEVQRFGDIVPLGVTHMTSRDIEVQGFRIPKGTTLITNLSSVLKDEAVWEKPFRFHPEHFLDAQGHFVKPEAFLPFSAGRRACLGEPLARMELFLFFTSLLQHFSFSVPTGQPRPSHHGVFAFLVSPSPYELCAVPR
T2 sequence (Q92887 whole entry): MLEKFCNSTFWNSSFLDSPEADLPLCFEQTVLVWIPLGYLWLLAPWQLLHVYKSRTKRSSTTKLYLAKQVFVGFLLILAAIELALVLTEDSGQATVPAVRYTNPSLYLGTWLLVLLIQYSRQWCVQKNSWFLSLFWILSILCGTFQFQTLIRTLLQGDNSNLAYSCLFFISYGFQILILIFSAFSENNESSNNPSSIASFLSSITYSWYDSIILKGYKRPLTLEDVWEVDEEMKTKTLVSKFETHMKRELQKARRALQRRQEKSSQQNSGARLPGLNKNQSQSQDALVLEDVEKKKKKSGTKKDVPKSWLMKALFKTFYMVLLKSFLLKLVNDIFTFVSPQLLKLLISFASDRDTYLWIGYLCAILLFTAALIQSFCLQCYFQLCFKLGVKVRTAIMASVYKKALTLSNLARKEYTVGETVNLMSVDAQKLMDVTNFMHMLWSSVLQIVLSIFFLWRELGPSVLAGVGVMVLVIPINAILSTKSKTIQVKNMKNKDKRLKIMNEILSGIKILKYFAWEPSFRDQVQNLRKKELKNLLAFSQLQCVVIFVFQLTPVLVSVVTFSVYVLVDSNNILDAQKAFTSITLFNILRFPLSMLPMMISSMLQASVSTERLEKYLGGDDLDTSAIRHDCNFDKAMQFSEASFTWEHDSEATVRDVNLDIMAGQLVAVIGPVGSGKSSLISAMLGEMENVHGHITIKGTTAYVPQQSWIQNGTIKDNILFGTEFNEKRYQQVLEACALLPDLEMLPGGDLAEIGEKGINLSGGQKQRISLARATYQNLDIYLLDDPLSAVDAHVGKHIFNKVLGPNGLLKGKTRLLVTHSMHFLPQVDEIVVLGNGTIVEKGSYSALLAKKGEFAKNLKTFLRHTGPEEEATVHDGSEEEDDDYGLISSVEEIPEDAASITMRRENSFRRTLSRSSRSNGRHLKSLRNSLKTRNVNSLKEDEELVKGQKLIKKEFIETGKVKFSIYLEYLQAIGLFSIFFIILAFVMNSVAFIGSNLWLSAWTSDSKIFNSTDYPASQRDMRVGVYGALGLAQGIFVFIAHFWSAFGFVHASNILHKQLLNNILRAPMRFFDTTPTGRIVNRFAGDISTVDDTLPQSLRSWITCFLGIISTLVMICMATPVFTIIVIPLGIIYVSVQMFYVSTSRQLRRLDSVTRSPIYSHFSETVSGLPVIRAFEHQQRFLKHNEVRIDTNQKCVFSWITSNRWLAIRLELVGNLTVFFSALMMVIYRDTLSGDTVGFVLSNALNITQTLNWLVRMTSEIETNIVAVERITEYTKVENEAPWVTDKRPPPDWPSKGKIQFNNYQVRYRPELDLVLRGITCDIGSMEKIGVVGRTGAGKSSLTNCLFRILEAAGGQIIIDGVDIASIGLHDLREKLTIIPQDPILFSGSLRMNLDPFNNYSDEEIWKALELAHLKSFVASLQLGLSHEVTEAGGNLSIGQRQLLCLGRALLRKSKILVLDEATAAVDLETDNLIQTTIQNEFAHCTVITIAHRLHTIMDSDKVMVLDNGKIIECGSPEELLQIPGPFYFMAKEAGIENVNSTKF

By IC50 is commonly meant the concentration needed to halve the response being measured. For `COc1cc(-c2oc3cc(O)cc(O)c3c(=O)c2OC2OC(C(=O)O)C(O)C(O)C2O)ccc1O` (centres unmarked) [I3G, isorhamnetin-3-glucuronide], the “inhibition of CYP2D6 activity” value in series [1] is reported as “did not affect”. In addition, the IC50 was found to be 14.9 µM in series [2] (setting [4]) and 9.62 µM in series [3] (setting [5]). In addition, the “concentration causing statistically significant (p < 0.01) inhibition, OATP1B3” value in series [3] (20 μM pyranine, 30 min) was determined as 6.3 µM.

On to `COc1cc(-c2oc3cc(O)cc(O)c3c(=O)c2O)ccc1O` [IR, isorhamnetin], for which the “inhibition of CYP2D6 activity” value in series [1] is reported as “did not affect”. The concentration for half-maximal inhibition (IC50) in series [2] was > 30 µM; in series [3], 3.1 µM. Further, in series [3] (20 μM pyranine, 30 min), the “concentration causing statistically significant (p < 0.01) inhibition, OATP1B3” value is 3.1 µM.

Turning to `O=C(O)C1OC(Oc2c(-c3ccc(O)c(O)c3)oc3cc(O)cc(O)c3c2=O)C(O)C(O)C1O` (centres unmarked) [Q3G, quercetin-3-glucuronide], the “inhibition of CYP2D6 activity” value in series [1] was “did not affect”. Also, the figures for the IC50 in series [2] (setting [4]) and in series [3] (setting [5]) were 24.2 µM and 5.71 µM, respectively. Further, the “concentration causing statistically significant (p < 0.01) inhibition, OATP1B3” value in series [3] (20 μM pyranine, 30 min) was determined as 3.1 µM.

`O=c1c(O)c(-c2ccc(O)c(OS(=O)(=O)O)c2)oc2cc(O)cc(O)c12` [Q3′S, quercetin-3′-sulfate]: in series [1], the “inhibition of CYP2D6 activity” value was “did not affect”. Moreover, the IC50 in series [2] (setting [4]) is 19.6 µM; in series [3] (setting [5]), 2.5 µM. Moreover, in series [3] (20 μM pyranine, 30 min), the “concentration causing statistically significant (p < 0.01) inhibition, OATP1B3” value worked out at 1.3 µM.

Take `O=c1c(O)c(-c2ccc(O)c(O)c2)oc2cc(O)cc(O)c12` [Q, quercetin]: the “inhibition of CYP2D6 activity” value in series [1] is given as “did not affect”. Also, the IC50 in series [2] (setting [4]) is > 30 µM; in series [3] (setting [5]) it was 3.22 µM. Moreover, in series [3] (20 μM pyranine, 30 min), the “concentration causing statistically significant (p < 0.01) inhibition, OATP1B3” value was 2.5 µM.
